Measurements from patent US11833185B2, “Anti-neurodegenerative therapeutic, method of manufacture, and use” (UNIVERSITY OF KENTUCKY RESEARCH FOUNDATION, priority 2017, dated 2023).
Like-named read-outs stand apart in the source and are kept apart here. Where no end group is shown, it is not given here.

Experiments:
Alzheimer's disease = details: person
Parkinson's disease = details: person
Description: A person presents with current diagnosis of Parkinson's disease with motor complications and responsiveness to levodopa or dopa agonists. They are buccally administered 100 mg at every 12 hours for 180 days. At 1, 90, 180, 270 and 360 days they are tested/retested with a battery of neurological tests including Unified Parkinson's Disease Rating Scale (UPDRS), Time Tests, Hoehn and Yahr (HY) Scale, Clinical Global Impression of Severity (CGIS), Clinical Impression of Severity Index (CISI-PD), Patient Global Impression of Severity (PGIS).
A person presents with diagnosis of Parkinson's disease. They are administered peptide by intranasal spray at a dosage of 25 mg, daily for 60 days. At 1, 90, 180, 270 and 360 days they are tested/retested with a battery of neurological tests including Unified Parkinson's Disease Rating Scale (UPDRS), Time Tests, Hoehn and Yahr (HY) Scale, Clinical Global Impression of Severity (CGIS), Clinical Impression of Severity Index (CISI-PD), Patient Global Impression of Severity (PGIS).

[1] = system: striatum levels of DA, DOPAC, HVA, 5-HT, 5-HIAA, and NE; assay: Striatum neurochemistry (RP-HPLC EC) after repeated intranasal administration; type: in vivo, normal Fischer 344 rats; details: for Turnover ratio 5-HIAA/5-HT / Turnover ratio (HVA + DOPAC)/DA / Turnover ratio DOPAC/DA / Turnover ratio HVA/DA / 5-HT / 5 HIAA / DA / DOPAC / HVA / NE: 5 days a week for 3 weeks, combined left and right striatum, mean; for 5-HT / 5 HIAA / DA / DOPAC / HVA / NE: wet tissue weight
Description: (§1) Groups of 12, 3 month old Fischer 344 rats were intranasally dosed 50 microliters (4 single 12.5 microliter administrations, 2 per nare, 5 minutes between each nare administration) of either vehicle, 1.1 mg/mL, or 3.5 mg/mL of AV6403 [Leu-Ala-Pro-Ala-Glu-Asp-NH2] (SEQ ID NO: 1) once a day for 5 days a week, for 3 weeks (5 consecutive days of dosing, 2 off days, repeated total of 3 times). Following day 21, rats were euthanized and brain tissue was recovered and sections removed and weighed for neurochemical analysis by Reverse-Phase High Pressure Liquid Chromatography Electrochemical detection (RP-HPLC EC).
Dopamine [DA], its major metabolites 3,4-Dihydroxy-Phenylacetic Acid (DOPAC) and Homovanillic Acid (HVA), 5-hydroxytryptamine (5-HT, serotonin), its metabolite 5-hydroxyindoleacetic acid (5-HIAA), and norepinephrine (NE) were measured in the striatum and substantia nigra (SN) for each group. In the striatum [TABLE 1], 1.1 mg/mL dosing of AV6403 led to a 20% and 25% reduction of DA and HVA levels [FIG. 1A-FIG. 1C], respectively, resulting in an increase in dopamine turnover (22% [DOPAC/DA] and 16% [[(HVA+DOPAC)/DA]), relative to saline vehicle treated rats [FIG. 2A-FIG. 2B]. […] NE levels were reduced in the striatum with about a 36% reduction for AV6403 1.1 mg/mL dosage versus vehicle [TABLE 1].
as §1, with “1.2” for “1.1”, “3.6” for “3.5”, “AV7624 [Glu-Ala-Pro-Phe-Glu-Asp-NH2]” for “AV6403 [Leu-Ala-Pro-Ala-Glu-Asp-NH2] (SEQ ID NO: 1)”, “RP-HPLC EC.” for “Reverse-Phase High Pressure Liquid Chromatography Electrochemical detection (RP-HPLC EC).”
DA, DOPAC, HVA, 5-HT, 5-HIAA, and NE were measured in the striatum and SN for each group. In the striatum [TABLE 5], 3.6 mg/mL dosing of AV7624 led to an approximate 18%, 39%, and 30% reduction of DA, DOPAC, and HVA levels [FIG. 6A-FIG. 6C], respectively, resulting in an about 18% decrease in dopamine turnover ([DOPAC/DA] and [(HVA+DOPAC)/DA]), relative to saline vehicle treated rats [FIG. 7A-FIG. 7B]. […] NE levels were reduced in the striatum in a dose dependent manner, with about a 32% reduction for the AV7624 3.6 mg/mL dosage versus vehicle [TABLE 5]

[2] = system: substantia nigra levels of DA, DOPAC, HVA, 5-HT, 5-HIAA, and NE; assay: Substantia nigra neurochemistry (RP-HPLC EC) after repeated intranasal administration; type: in vivo, normal Fischer 344 rats; details: for Turnover ratio 5-HIAA/5-HT / Turnover ratio (HVA + DOPAC)/DA / Turnover ratio DOPAC/DA / Turnover ratio HVA/DA / 5-HIAA / 5-HT / DA / DOPAC / HVA / NE: 5 days a week for 3 weeks, combined left and right substantia nigra, mean; for 5-HIAA / 5-HT / DA / DOPAC / HVA / NE: wet tissue weight; for decrease of NE levels: versus vehicle treated rats
Description: as §1
In the SN [TABLE 3], treatment of AV6403 led to about a 13% increase in DOPAC and a 11% reduction of HVA, depending on the dosage, [FIG. 4A-FIG. 4C] resulting in an increase in dopamine turnover (20% [DOPAC/DA] for 3.5 mg/mL dosage; 23% [(HVA+DOPAC)/DA] for 1.1 mg/mL) relative to saline vehicle treated rats [FIG. 5A-FIG. 5B]. Treatment with 1.1 mg/mL AV6403 decreased 5-HT by 10% in the SN, resulting in a 16% increase in serotonin turnover [5-HIAA/5-HT] [TABLE 4]. The higher dosage (3.5 mg/mL AV6403) increased NE levels in the SN by about 23% versus vehicle treated rats, respectively [TABLE 3].
as §1, with “1.2” for “1.1”, “3.6” for “3.5”, “AV7624 [Glu-Ala-Pro-Phe-Glu-Asp-NH2]” for “AV6403 [Leu-Ala-Pro-Ala-Glu-Asp-NH2] (SEQ ID NO: 1)”, “RP-HPLC EC.” for “Reverse-Phase High Pressure Liquid Chromatography Electrochemical detection (RP-HPLC EC).”
In the SN [TABLE 7], treatment with 3.6 mg/mL AV7624 led to about a 23%, 22%, and a 6% decrease in DA, DOPAC, and HVA [FIG. 9A-FIG. 9C], relative to saline vehicle treated rats, with minor effects on dopamine turnover [FIG. 10A-FIG. 10B]. Treatment with 3.6 mg/mL AV7624 decreased 5-HT by 20% and 5-HIAA by about 18% in the SN [TABLE 7], resulting in a minor effect on serotonin turnover [TABLE 8]. NE levels in the SN were decreased (17% and 13%) by both dosages (1.2 mg/mL and 3.6 mg/mL) versus vehicle treated rats, respectively [TABLE 7].

[3] = 3.6 mg/mL intranasal, striatum, relative to saline vehicle treated rats
[4] = 3.6 mg/mL repeated intranasal, striatum
[5] = 3.6 mg/mL intranasal, SN, relative to saline vehicle treated rats

## D-Glutamate-Alanine-Proline-Phenylalanine-D-Alanine-Glycine-NH2 [SEQ ID NO: 7]
Alzheimer's disease; Alzheimer's Disease, buccal 25 mg daily for 60 days
  cognitive loss from day 1 over 360 days: minimal to no cognitive loss

## Cyclo (cys-Leucine-Glycine-Proline-Phenylalanine-Serine-Glutamate-cys [SEQ ID NO: 5]
Parkinson's disease; buccal 100 mg every 12 hours for 180 days
  additional test loss from day 1 over 360 days: minimal to no additional test loss

## Glu-Ala-Pro-Phe-Glu-Asp-NH2 (EAPFED-NH2) [AV7624]
[1]; 1.2 mg/mL intranasal
  Turnover ratio 5-HIAA/5-HT: 1.15
  Turnover ratio (HVA + DOPAC)/DA: 0.38
  Turnover ratio DOPAC/DA: 0.28
  Turnover ratio HVA/DA: 0.09
  5-HT: 610 ng/g
  5 HIAA: 674 ng/g
  DA: 13521 ng/g
  DOPAC: 3906 ng/g
  HVA: 1253 ng/g
  NE: 83 ng/g
[1]; 3.6 mg/mL intranasal
  Turnover ratio 5-HIAA/5-HT: 1.05
  Turnover ratio (HVA + DOPAC)/DA: 0.33
  Turnover ratio DOPAC/DA: 0.24
  Turnover ratio HVA/DA: 0.09
  5-HT: 487 ng/g
  5 HIAA: 499 ng/g
  DA: 10762 ng/g
  DOPAC: 2478 ng/g
  HVA: 915 ng/g
  NE: 67 ng/g
[1]; [3]
  decrease in dopamine turnover ([DOPAC/DA] and [(HVA+DOPAC)/DA]): about 18%
  reduction of DA levels: about 18%
  reduction of DOPAC levels: ~39%
  reduction of HVA levels: ~30%
[1]; 3.6 mg/mL intranasal, striatum, versus vehicle
  reduction of NE levels: ~32%
[1]; [4]
  effect on turnover [5-HIAA/5-HT]: small effect
  reduction of 5-HIAA levels: ~30%
  reduction of 5-HT levels: ~28%
[1]; lower dosage (1.2 mg/mL) intranasal, striatum
  effects on DA, 5-HT and their metabolites: less robust effects
[2]; 1.2 mg/mL intranasal
  Turnover ratio 5-HIAA/5-HT: 0.58
  Turnover ratio (HVA + DOPAC)/DA: 0.34
  Turnover ratio DOPAC/DA: 0.24
  Turnover ratio HVA/DA: 0.10
  5-HIAA: 886 ng/g
  5-HT: 1546 ng/g
  DA: 1918 ng/g
  DOPAC: 472 ng/g
  HVA: 184 ng/g
  NE: 727 ng/g
[2]; 1.2 mg/mL intranasal, SN
  decrease of NE levels: 17%
[2]; 3.6 mg/mL intranasal
  Turnover ratio 5-HIAA/5-HT: 0.57
  Turnover ratio (HVA + DOPAC)/DA: 0.35
  Turnover ratio DOPAC/DA: 0.22
  Turnover ratio HVA/DA: 0.13
  5-HIAA: 737 ng/g
  5-HT: 1251 ng/g
  DA: 1523 ng/g
  DOPAC: 376 ng/g
  HVA: 177 ng/g
  NE: 767 ng/g
[2]; 3.6 mg/mL intranasal, SN
  decrease of 5-HIAA: about 18%
  decrease of 5-HT: 20%
  effect on serotonin turnover: minor effect
  effects on dopamine turnover: minor effects
  decrease of NE levels: 13%
[2]; [5]
  decrease in DA: ~23%
  decrease in DOPAC: ~22%
  decrease in HVA: ~6%

## Glutamate-deuterated Lysine-Proline-D-Phenylalanine-deuterated Leucine-NH2 [SEQ ID NO: 8]
Parkinson's disease; intranasal spray 25 mg daily for 60 days
  additional UPDRS loss from day 1 over 360 days: minimal to no additional UPDRS loss

## Leucine-Glycine-Proline-Phenylalanine-Serine-Glutamate
Alzheimer's disease; mild cognitive impairment Alzheimer's disease, intranasal 5 mg once per day for 360 days
  cognitive loss from day 1 over 360 days: minimal to no cognitive loss

## Tryptophan-D-Alanine-Proline-D-Lysine-Asparagine-NH2 [SEQ ID NO: 6]
Alzheimer's disease; Alzheimer's disease, intranasal 100 mg once a week for 30 days
  cognitive loss from day 1 over 360 days: minimal to no cognitive loss
